The results in this text go back to PubChem BioAssay (NCI).

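Results reflect a 48-hour exposure of cells in 96-well plates to compound at five concentrations. GI50: concentration for 50% inhibition of growth. At the TGI there is no net growth.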 A value given as a limit tells only on which side of the number the result lay.

Test systems include EKVX NSCLC; HCC-2998 colon; LOX IMVI melanoma; NCI-H460 lung; OVCAR-5 ovarian; SF-539 CNS; SK-MEL-5 melanoma; SK-OV-3 ovarian; SW-620 colon; UACC-257 melanoma.
Test in all cases: NCI anticancer screen, dose series, 48 h

`CC1(C)OC2OC(COC(=O)C(c3ccccc3)c3ccccc3)C3OC(C)(C)OC3C2O1` (stereo not drawn): the GI50 with EKVX NSCLC, with HCC-2998 colon, with OVCAR-5 ovarian and with SK-OV-3 ovarian was more than 100 µM each time. The TGI in the assay with EKVX NSCLC, in the assay on HCC-2998 colon, with LOX IMVI melanoma, with NCI-H460 lung, in the assay on OVCAR-5 ovarian and with SF-539 CNS was more than 100 µM each time. Also, the figures for the TGI in the assay with SK-MEL-5 melanoma, in the assay with SK-OV-3 ovarian and in the assay with SW-620 colon were 24.4 µM, more than 100 µM and more than 100 µM, respectively.
For the compound `CC(C)=CC(=O)CC(=O)C(=O)NCCNC(=O)C(=O)CC(=O)C=C(C)C`, the TGI in the assay on EKVX NSCLC, in the assay on HCC-2998 colon, with LOX IMVI melanoma, with NCI-H460 lung, in the assay with OVCAR-5 ovarian and in the assay with SF-539 CNS was more than 50 µM each time. The TGI in the assay on SK-OV-3 ovarian, with SW-620 colon and in the assay on UACC-257 melanoma was more than 50 µM throughout.
Consider `O=C(Nc1ccc(Cl)c(Cl)c1)C1C(=O)N(c2ccc(Cl)c(Cl)c2)C(=O)/C1=N\O` (stereo not drawn), for which the TGI was more than 100 µM in the assay on EKVX NSCLC; more than 100 µM with HCC-2998 colon; 87.7 µM in the assay on LOX IMVI melanoma; more than 100 µM with OVCAR-5 ovarian; more than 100 µM with SF-539 CNS; more than 100 µM in the assay on SK-MEL-5 melanoma. Moreover, the TGI in the assay on SK-OV-3 ovarian, in the assay on SW-620 colon and in the assay on UACC-257 melanoma was more than 100 µM throughout.
For the compound `C1CCN2CC3CONC3C2C1` (stereo not drawn), the TGI in the assay with EKVX NSCLC, with HCC-2998 colon, in the assay on LOX IMVI melanoma, in the assay on NCI-H460 lung, in the assay with OVCAR-5 ovarian and in the assay with SF-539 CNS was more than 100 µM throughout. Also, the TGI with SK-MEL-5 melanoma, in the assay on SW-620 colon and with UACC-257 melanoma was more than 100 µM in each case.
Turning to `CCOc1ccc(/C=C2/C(=O)N=C(N)N=C2N)cc1OCC`, the TGI in the assay on EKVX NSCLC, in the assay with HCC-2998 colon, in the assay on LOX IMVI melanoma, in the assay on NCI-H460 lung, with OVCAR-5 ovarian and in the assay with SK-MEL-5 melanoma was more than 100 µM in each case. The TGI with SK-OV-3 ovarian, in the assay with SW-620 colon and with UACC-257 melanoma was more than 100 µM each time.
In the case of `Nc1c(-c2nc3ccccc3s2)[n+]([O-])c2ccccc2[n+]1[O-]`, the TGI with EKVX NSCLC was more than 100 µM; with HCC-2998 colon, more than 100 µM; in the assay on NCI-H460 lung, more than 100 µM; in the assay on OVCAR-5 ovarian, more than 100 µM; in the assay with SF-539 CNS, 78.8 µM; with SK-MEL-5 melanoma it was 40.4 µM. Further, the TGI is 88.9 µM with SK-OV-3 ovarian, more than 100 µM in the assay with SW-620 colon and more than 100 µM in the assay with UACC-257 melanoma.
As for `COc1ccc2c3c(c(C(=O)O)oc13)C(CCC(=O)O)CC2` (stereo not drawn), the TGI with EKVX NSCLC, with HCC-2998 colon, with LOX IMVI melanoma, in the assay with NCI-H460 lung, with SF-539 CNS and with SK-MEL-5 melanoma was more than 100 µM throughout. Besides, the TGI with SK-OV-3 ovarian, in the assay on SW-620 colon and with UACC-257 melanoma was more than 100 µM in each case.
In the case of `COc1ncc2cc1NS(=O)(=O)c1cccc(c1)C(=O)NCC1=CC=C(S1)c1ncnc3c1SC2=C3C`, the GI50 in the assay with EKVX NSCLC is 0.234 µM; in the assay on HCC-2998 colon, 0.203 µM; with LOX IMVI melanoma, 90.2 nM; in the assay with NCI-H460 lung it was 370 nM; in the assay with OVCAR-5 ovarian, 0.169 µM; with SK-MEL-5 melanoma, 36.9 nM. Further, the GI50 is 0.378 µM with SK-OV-3 ovarian, 490 nM in the assay with SW-620 colon and 371 nM with UACC-257 melanoma. The TGI in the assay on EKVX NSCLC is 2.54 µM; with HCC-2998 colon, 0.574 µM; in the assay on LOX IMVI melanoma it was 0.499 µM; in the assay with NCI-H460 lung, 2.55 µM; with OVCAR-5 ovarian, 4.02 µM; in the assay on SK-MEL-5 melanoma, 0.151 µM. In addition, the TGI amounted to 4.07 µM with SK-OV-3 ovarian, 3.31 µM in the assay with SW-620 colon and 2.99 µM in the assay with UACC-257 melanoma.
In the case of `CC(C)(C)c1cc(C(OCCl)(C(F)(F)F)C(F)(F)F)c2c(c1)C(C(F)(F)F)(C(F)(F)F)OC21c2ccccc2C(=O)c2ccccc21`, the TGI with EKVX NSCLC, in the assay with HCC-2998 colon, with NCI-H460 lung, in the assay on OVCAR-5 ovarian, in the assay with SF-539 CNS and with SK-MEL-5 melanoma was more than 100 µM throughout. The TGI with SW-620 colon and in the assay on UACC-257 melanoma was more than 100 µM in each case.
Take `Cc1c(C)c2ccc(OC(C)C(=O)O)cc2oc1=O` (stereo not drawn): the TGI with EKVX NSCLC, in the assay with HCC-2998 colon, in the assay on LOX IMVI melanoma, in the assay on NCI-H460 lung, in the assay with SF-539 CNS and in the assay with SK-MEL-5 melanoma was more than 100 µM each time. Besides, the TGI in the assay with SK-OV-3 ovarian, with SW-620 colon and in the assay with UACC-257 melanoma was more than 100 µM in each case.
As for `O=c1[nH]c(=O)n(C2CC(O)C(O)C(CO)O2)cc1F` (stereo not drawn), the TGI with EKVX NSCLC, in the assay on HCC-2998 colon, in the assay with LOX IMVI melanoma, in the assay with NCI-H460 lung, in the assay with OVCAR-5 ovarian and in the assay on SF-539 CNS was more than 100 µM each time. Also, the TGI in the assay on SK-OV-3 ovarian, in the assay with SW-620 colon and in the assay with UACC-257 melanoma was more than 100 µM in each case.
Turning to `CC(C)c1cc(C(C)C)c(Cl)c(Cl)c1O` (tested in a mixture with another compound), the TGI is 53.7 µM in the assay with EKVX NSCLC; 64.5 µM in the assay on HCC-2998 colon; more than 100 µM in the assay on LOX IMVI melanoma; more than 100 µM with NCI-H460 lung; more than 100 µM with OVCAR-5 ovarian; 49 µM in the assay with SF-539 CNS. The results for the TGI in the assay on SK-MEL-5 melanoma, in the assay on SW-620 colon and in the assay on UACC-257 melanoma were 24.3 µM, 82.1 µM and 39.3 µM, respectively.
As to `CN1CC[C@]23c4c5ccc(O)c4OC2c2[nH]ncc2C[C@H]3[C@H]1C5` (stereo partly drawn), the TGI in the assay on EKVX NSCLC, in the assay with HCC-2998 colon, in the assay with LOX IMVI melanoma, in the assay with NCI-H460 lung, in the assay on OVCAR-5 ovarian and in the assay with SK-MEL-5 melanoma was more than 100 µM throughout. Moreover, the TGI in the assay with SK-OV-3 ovarian and with UACC-257 melanoma was more than 100 µM in each case.
On to `CN1CCOCCOCCOc2ccccc2NC(=O)c2nc(cnc2N)-c2ccc(cc2)S1(=O)=O`, for which the GI50 with EKVX NSCLC is 60.2 µM; in the assay on HCC-2998 colon, more than 100 µM; with OVCAR-5 ovarian it was more than 100 µM; with SF-539 CNS, 37.1 nM; in the assay with SK-OV-3 ovarian, 7.12 µM. In addition, the TGI in the assay with EKVX NSCLC, with HCC-2998 colon, in the assay with OVCAR-5 ovarian, in the assay with SF-539 CNS and with SK-OV-3 ovarian was more than 100 µM throughout.
For `Nc1nc(-c2ccccc2)cc(-c2cc(Cl)ccc2O)n1`, the TGI in the assay on EKVX NSCLC, in the assay on HCC-2998 colon, with LOX IMVI melanoma, in the assay on NCI-H460 lung, in the assay with OVCAR-5 ovarian and in the assay on SF-539 CNS was more than 100 µM in each case. The TGI with SK-OV-3 ovarian was 77.8 µM; in the assay with SW-620 colon, more than 100 µM; with UACC-257 melanoma, more than 100 µM.
As to `CCOC(=O)n1c2ccccc2c(=O)n1CCO`, the TGI in the assay on EKVX NSCLC, with HCC-2998 colon, in the assay with NCI-H460 lung, in the assay with OVCAR-5 ovarian, in the assay on SF-539 CNS and in the assay with SK-MEL-5 melanoma was more than 100 µM throughout. Further, the TGI in the assay on SK-OV-3 ovarian, in the assay on SW-620 colon and in the assay with UACC-257 melanoma was more than 100 µM each time.
`NC(=O)C(=O)Cc1nc2ccccc2s1`: the TGI with EKVX NSCLC, in the assay with HCC-2998 colon, in the assay with LOX IMVI melanoma, with NCI-H460 lung, in the assay on OVCAR-5 ovarian and with SF-539 CNS was more than 100 µM in each case. The TGI with SK-OV-3 ovarian, in the assay on SW-620 colon and in the assay with UACC-257 melanoma was more than 100 µM each time.
Turning to `COC(=O)c1ccc2c(c1)C(=O)c1c-2n(CCCCl)c(=O)c2cc(OC)c(OC)cc12`, the GI50 was more than 100 µM in the assay with EKVX NSCLC; more than 100 µM with HCC-2998 colon; more than 100000 nM in the assay with LOX IMVI melanoma; more than 100000 nM in the assay with NCI-H460 lung; more than 100 µM with OVCAR-5 ovarian; more than 100000 nM in the assay on SK-MEL-5 melanoma. Also, the GI50 in the assay on SK-OV-3 ovarian was 44.1 µM; in the assay with SW-620 colon, more than 100000 nM; in the assay with UACC-257 melanoma it was more than 100000 nM. The TGI in the assay on EKVX NSCLC, with HCC-2998 colon, in the assay with LOX IMVI melanoma, in the assay on NCI-H460 lung, in the assay on OVCAR-5 ovarian and with SK-MEL-5 melanoma was more than 100 µM in each case. Besides, the TGI in the assay with SK-OV-3 ovarian, in the assay with SW-620 colon and in the assay on UACC-257 melanoma was more than 100 µM in each case.
With `CC(=O)c1c(O)c2c([nH]c1=O)CCCC2`, the TGI in the assay on EKVX NSCLC was more than 100 µM; with HCC-2998 colon it was 53.4 µM; with LOX IMVI melanoma, more than 100 µM; in the assay with NCI-H460 lung it was 30.5 µM; in the assay with SK-OV-3 ovarian, 48.5 µM; in the assay on SW-620 colon it was more than 100 µM.
`O=C(O)C1=C(C(=O)O)Oc2ccccc2O1`: the TGI in the assay with EKVX NSCLC, with HCC-2998 colon, in the assay on LOX IMVI melanoma, in the assay on NCI-H460 lung, in the assay on OVCAR-5 ovarian and in the assay on SF-539 CNS was more than 100 µM throughout. The TGI in the assay on SK-OV-3 ovarian, with SW-620 colon and in the assay with UACC-257 melanoma was more than 100 µM throughout.
